Measured values as given in patent US8445006B2, “Biomolecular coating for implants” (Georgia Tech Research Corporation, priority 2006, dated 2013).

How the values were obtained:
[1] = test system: rat tibia cortical bone; assay: Rat tibia cortical bone implantation, histology and bone-implant contact histomorphometry; type: in vivo; conditions: 4 weeks; for histology: bone matrix around implants: poly(OEGMA) brush implants, 0.9 pmol/cm^2
Description: (§1) Commercially pure titanium implants (FIG. 4) were sonicated in de-ionized water for 20 min to remove surface debris. Implants were then dipped in 4% HF for 30 sec to remove the existing oxide layer and then incubated in 35% HNO3 for 30 min at 50° C. to regenerate a new oxide coating. Samples were transferred to 1.8 N NaOH for 1 min to terminate the oxidation reaction. Implants were then rinsed and boiled in de-ionized water for 1 h. To create the bioactive coating, the implants were incubated in 20 μg/ml GFOGER peptide (SEQ ID NO:1) or type I collagen solution for 1 h. Control titanium rods were incubated in PBS.
(§2) Implantations were conducted in accordance with an IACUC-approved protocol. Both hind legs of anesthetized, mature Sprague-Dawley male rats (250-350 g) were shaved and scrubbed with alcohol. The medial aspect of the proximal tibial metaphysis was exposed through an antero-medial skin incision, leaving the medial collateral ligament intact. Using a saline-cooled drill, two defects were created in each tibia. Sterile implant rods were press fit into the defects. Periosteum was mobilized and sutured over the implantation site, and the skin was closed with wound clips. Subjects were euthanized after 4 weeks and proximal tibiae were fixed in neutral buffered formalin for histology or recovered without fixation and maintained in PBS-moistened gauze for immediate mechanical testing.
Excised tibiae were fixed in 10% neutral buffered formalin for 1 week. […] Ground sections of 50-80 μm were generated using the Exakt Grinding System™. Two longitudinal ground sections were generated per tibia, each containing two titanium plugs inserted transverse to the tibia's long axis. Sections were then stained with Sanderson's Rapid Bone Stain™ and a van Gieson counter stain. Bone implant contact (BIC) was measured as the percentage of implant's circumference that was in direct contact with bone tissue (Adobe Photoshop® CS imaging software).
(§3) To evaluate the performance of the bioactive GFOGER peptide (SEQ ID NO:1) treatment in vivo, osseointegration in a rat tibia cortical bone model was quantified using quantitative histomorphometry and pull-out mechanical testing. A cylindrical titanium implant rod with a tapered stop collar was designed (FIG. 4). The tapered head ensures that all implants are inserted into the bone at the same depth, guaranteeing uniform bone contact among treatments. Using a saline-cooled drill, two defects 2 mm in diameter were created in the medial aspect of the proximal tibial metaphysis. Implant rods consisting of GFOGER peptide (SEQ ID NO:1) functionalized or untreated (control) titanium were press fit into the cortical defects. After four weeks, the rat tibiae were harvested and evaluated for bone apposition by histological staining and mechanical integration by pull-out testing. […] Representative micrographs show 50-80 μm longitudinal ground sections of rat tibia stained with Sanderson's Rapid Bone Stain™ and van Gieson counterstain. Cells stain dark to light blue, soft tissue elements stain blue-green, and bone matrix stains yellow orange to autumn orange.
(§4) Osseointegration of implants in a rat tibia cortical bone model was quantified to evaluate the in vivo performance of the engineered titanium surfaces in bone healing. Importantly, this in vivo model provides a rigorous platform to evaluate implant coating function in a relevant orthopaedic setting. Two 2.0-mm diameter defects were drilled into the medial aspect of the proximal tibial metaphysis using a saline cooled drill. Tapered cylindrical implants (FIG. 4) of clinical-grade titanium were press-fit into the cortical defects.

[2] = test system: osteoblastic cells; assay: In vitro bioresistance and adhesive capacity of poly(OEGMA) brushes on titanium; type: cell-based; conditions: serum-containing media, osteoblastic cells 1 h
Description: Surfaces were incubated in serum-containing media for various times and subsequently challenged with osteoblastic cells for 1 h.

[3] = test system: rat tibia cortical bone; assay: Rat tibia cortical bone implantation, pull-out mechanical testing; type: in vivo
Description: as §1, §2, §3, §4

[4] = test system: bone marrow stromal cells; assay: Osteoblast-specific gene expression by qRT-PCR; type: cell-based, rat
Description: Primary bone marrow stromal cells were harvested from the femora of young adult male Wistar rats in accordance with an IACUC-approved protocol. After excision, hindleg femora and tibiae were cleared of soft tissue and rinsed in growth medium (α-minimal essential medium supplemented with 10% fetal bovine serum, 1% penicillin-streptomycin, and 0.3 μg/ml amphotericin B). The ends of the long bones were then removed and the marrow space was flushed with culture medium (3-5 ml), using a syringe with an 18-gauge needle. Marrow isolates were pooled, centrifuged, resuspended in growth medium, and seeded for adhesion-dependent selection on tissue culture polystyrene dishes. Non-adherent hematopoietic cells were removed during subsequent medium exchanges, which occurred every other day. Cells were subcultured every two days according to standard techniques. For in vitro osteogenic assays, cells were seeded at 10,000 cells/cm^2 in growth medium. After 24 h, cultures were maintained in osteogenic medium consisting of growth medium supplemented with 50 μg/ml L-ascorbic acid and 3 mM sodium β-glycerophosphate.
Gene expression was analyzed by qRT-PCR. Total RNA was isolated at 7 days in culture using the Qiagen RNeasy RNA isolation kit. During RNA isolation and purification, samples were treated with DNaseI (27 Kunitz units/sample) for 15 min at room temperature to eliminate any genomic DNA contamination. The concentration of purified RNA was quantified using a NanoDrop™ (NanoDrop Technologies) and 1 μg of total RNA was used to synthesize cDNA templates by oligo(dT) priming using the Superscript First-Strand cDNA Synthesis System™.
qRT-PCR was performed with the ABI Prism 7700 Sequence Detection System (Applied Biosystems; 40 cycles; melting for 15 s at 95° C.; annealing and extending for 60 s at 60° C.) using SYBR Green DNA intercalating dye. Gene transcript concentration in the sample cDNA template solutions was quantified by preparing a functional range of dilutions from an absolute standard for each gene. Linear standard curves were then generated by plotting the log of the known concentration versus the CT value (the cycle number at which the fluorescence reached a threshold level). Oligonucleotide primers (Table 1) were designed using Primer Express™ software (Applied Biosystems).

[5] = 4 weeks, tethered brushes 0.9 pmol/cm^2
[6] = 7-day cultures, tethered brushes vs RGD supports
[7] = 7 day cultures, adsorbed coating vs untreated titanium

Substance | bone-implant apposition ([1]; passively coated (20 μg/ml) vs unmodified titanium or pFN-coated) | histology: bone matrix around implants [1] | bone-implant contact area vs unmodified titanium implant ([1]; tethered brush implants) | cell adhesion on ligand-presenting poly(OEGMA) brushes [2] | mechanical fixation vs unmodified titanium ([3]; 4 weeks, tethered brushes) | enhancement in fixation over RGD-tethered implants [3, 5] [fold] | improvement in fixation compared to unmodified poly(OEGMA) brush coating [3, 5] [fold] | dependence of mechanical fixation on tethered surface density ([3]; varying tethered densities, hyperbolic relationship R^2=0.87) | bone sialoprotein (BSP) transcript levels [4, 6] | osteocalcin (OCN) transcript levels [4, 6] | Runx2/Cbfa1 expression levels ([4]; 7-day cultures, tethered brushes vs equimolar RGD brushes) | bone apposition (bone implant contact, BIC) ([1]; passively coated implants vs untreated titanium) | histology: peri-implant bone mineral ([1]; passively coated titanium implants (20 μg/ml)) | mechanical fixation (pull-out force) ([3]; 4 weeks, vs type I collagen or untreated titanium) | Runx2/Cbfa1 expression levels [4, 7] | bone sialoprotein gene expression [4, 7] | osteocalcin gene expression [4, 7] | bone apposition and mechanical fixation among brush implant groups ([3]; 4 weeks, poly(OEGMA) brush implants) | any differentiation marker vs serum-exposed unmodified titanium ([4]; tethered brushes)
FNIII7-10: monobiotinylated recombinant fibronectin fragment spanning the 7-10th type III repeats of fibronectin; α5β1 integrin ligand | enhanced bone-implant apposition | extensive and contiguous bone matrix | significantly higher | comparable to the unmodified titanium | higher mechanical fixation | 2.9 | ~4 | increased with FNIII7-10 surface density | increased transcript levels | increased transcript levels | elevated |  |  |  |  |  |  |  | 
GGYGGGPC(GPP)5GFOGER(GPP)5GPC [GFOGER peptide] |  |  |  |  |  |  |  |  |  |  |  | nearly two-fold enhancement | substantial and contiguous bone mineral | significantly higher mechanical fixation | elevated | greater levels of gene expression | greater levels of gene expression |  | 
GRGDSPC [RGD peptide, linear RGD oligopeptide purchased from BACHEM; primarily supports αvβ3-mediated adhesion, reference compound] |  | Less bone tissue was observed |  | comparable to the unmodified titanium |  |  |  |  |  |  |  |  |  |  |  |  |  | no differences in bone apposition or mechanical fixation | No differences were observed
